Source: US20240299299A1, “COMPOSITIONS AND METHODS FOR INCREASING THE EFFICACY OF IMMUNOTHERAPIES AND VACCINES” (The Regents of the University of Michigan, priority 2021, published 2024)
Values belong to the compound of their own block, whether it stands above or below them.

What was measured:
[1] = Encapsulation of DHB-based prodrugs in lipid-based formulation; format: physicochemical; conditions: oleic acid, Tween 80, PBS emulsion
Description: The DHB-based prodrugs were synthesized by the Medicinal Chemistry Core in University of Michigan. To prepare the formulation, the prodrug #201 or #905 (4 mg) was added to the mixture of oleic acid (45 μL) and Tween 80 (25 μL) and incubated overnight to equilibrate and allow the prodrug to dissolve. Then an aqueous phase consisting of PBS buffer was added, and the formulation emulsified by ultrasonication with an ultrasonic processor.

[2] = test system: immune checkpoint blockers (ICBs); conditions: reported in literature; cited from earlier work
[3] = test system: OT-I CD8+ T cells; test: Tcf1+CD8+ differentiation of OT-I T cells with metabolites; format: cell-based, mice; conditions: day 6
Description: FIG. 3: a) OT-I CD8+ T cells were cultured with different metabolites in vitro as indicated, b,c) shown are the frequency of the Tcf1^+CD8+ T cells and the representative flow cytometry plots on day 6. Data represent the mean±s.e.m. (n=5).
Splenocytes from OT-I mice were obtained aseptically. The cells were cultured in 96-well plates (1×10^5 cells per well). For Tcm differentiation study, cells were activated with SIINFEKL peptide (4×10^−9M) in the presence of various metabolites (arginine: 3 mM; 3-methylhistidine: 3 mM; N-acetylneuraminate: 100 μM; disodium sebacate: 100 μM; DHB: 100 μM; pantothenate: 100 μM; γ-aminobutyric acid: 100 μM; glycerol: 100 μM; AICAR: 100 μM, sodium ferulate: 100 μM) for 3 days. Then cells were washed three times with T-cell medium and further cultured with IL-2 (10 ng ml^−1; PeproTech) in the presence of metabolites for 5 days. The cells were then washed twice and re-activated with SIINFEKL peptide (10 μM) for 2 h. The suspension cells were collected, blocked with CD16/32 antibody and stained with the fixable viability dye eFluor 450, FITC-CD44 rat anti-human/mouse and PE-CD62L monoclonal antibody. To test if the central memory CD8+ T cells differentiation is dependent on dendritic cells, CD8 T cells isolated from the spleen in OT-I mice were incubated in the 96-well plate, which was precoated with anti-hamster IgG antibody. […] (1 μg mL^−1) and IL-2 (100 U mL^−1) were added into each well in the presence of 3-methylhistidine (3 mM), DHB (100 μM), or sodium ferulate (100 μM) for 2 days. Then cells were washed for three times to remove α-CD3/α-CD28 antibodies and further incubated with metabolites and IL-2 (10 ng ml^−1) for 5 days. Thereafter, cells were collected for central memory CD8^+ T cells analysis. For CD8^+ T cells survival study, cells were activated with antigen peptide as above, following with thoroughly washing, and incubation in presence of IL-2 for 2 days. […] Tcf1^+CD8^+, CD44^+CD62L^+CD8^+ and survival (stained with Annexin V-APC and PI) T cells were detected via flow cytometry.

[4] = test system: OT-I CD8+ T cells; test: In vitro central memory (Tcm) differentiation of OT-I CD8+ T cells activated with SIINFEKL peptide and IL-2 with metabolites; format: cell-based, mice; conditions: day 8; metabolite-supplemented medium (arginine 3 mM, 3-methylhistidine 3 mM, DHB 100 μM, sodium ferulate 100 μM)
Description: FIG. 2: a) OT-I CD8+ T cells were cultured with different metabolites in vitro as indicated, b,c) shown is the frequency of CD44^+CD62L^+ Tcm CD8+ T cells on day 8. d) OT-I CD8+ T cells were activated with α-CD3/α-CD28 antibodies in presence of metabolites as indicated and shown is the Tcm CD8+ T cells on day 7. Data represent the mean±s.e.m. (n=5).
Splenocytes from OT-I mice were obtained aseptically. The cells were cultured in 96-well plates (1×10^5 cells per well). For Tcm differentiation study, cells were activated with SIINFEKL peptide (4×10^−9M) in the presence of various metabolites (arginine: 3 mM; 3-methylhistidine: 3 mM; N-acetylneuraminate: 100 μM; disodium sebacate: 100 μM; DHB: 100 μM; pantothenate: 100 μM; γ-aminobutyric acid: 100 μM; glycerol: 100 μM; AICAR: 100 μM, sodium ferulate: 100 μM) for 3 days. Then cells were washed three times with T-cell medium and further cultured with IL-2 (10 ng ml^−1; PeproTech) in the presence of metabolites for 5 days. The cells were then washed twice and re-activated with SIINFEKL peptide (10 μM) for 2 h. The suspension cells were collected, blocked with CD16/32 antibody and stained with the fixable viability dye eFluor 450, FITC-CD44 rat anti-human/mouse and PE-CD62L monoclonal antibody. To test if the central memory CD8+ T cells differentiation is dependent on dendritic cells, CD8 T cells isolated from the spleen in OT-I mice were incubated in the 96-well plate, which was precoated with anti-hamster IgG antibody. […] (1 μg mL^−1) and IL-2 (100 U mL^−1) were added into each well in the presence of 3-methylhistidine (3 mM), DHB (100 μM), or sodium ferulate (100 μM) for 2 days. Then cells were washed for three times to remove α-CD3/α-CD28 antibodies and further incubated with metabolites and IL-2 (10 ng ml^−1) for 5 days. Thereafter, cells were collected for central memory CD8^+ T cells analysis. For CD8^+ T cells survival study, cells were activated with antigen peptide as above, following with thoroughly washing, and incubation in presence of IL-2 for 2 days. Metabolites were added during this incubation (arginine: 3 mM, 1 mM; 3-methylhistidine: 3 mM, 1 mM, 500 μM, 100 μM; N-acetylneuraminate: 100 μM; disodium sebacate: 100 μM; DHB: 100 μM, 50 μM, 20 μM; pantothenate: 100 μM; γ-aminobutyric acid: 100 μM; glycerol: 100 μM; AICAR: 100 μM). Then cells were further incubated in absence of both IL-2 and metabolites for 36 h to induce the apoptosis/dead. For Tcf1^+CD8^+ differentiation study, cells were activated with antigen peptide as above, followed by thoroughly washing, and incubation with metabolites in presence of IL-2 for 3 days. […] Tcf1^+CD8^+, CD44^+CD62L^+CD8^+ and survival (stained with Annexin V-APC and PI) T cells were detected via flow cytometry.

encapsulation in lipid-based dose forms [1]: can be successfully encapsulated
Structure (SMILES): CCOC(=O)Oc1ccc(C(=O)OCC)cc1OC(=O)OCC [Prodrug #905, ethyl 3,4-bis((ethoxycarbonyl)oxy)benzoate]

Structure (SMILES): CN(CC(=O)O)C(=N)N [creatine]
efficacy of immune checkpoint blockers (ICBs) [2]: improve the efficacy of immune checkpoint blockers

Structure (SMILES): CSCC[C@H](N)C(=O)O [methionine]
efficacy of immune checkpoint blockers (ICBs) [2]: improve the efficacy of immune checkpoint blockers

Structure (SMILES): COc1cc(/C=C/C(=O)[O-])ccc1O.[Na+] [sodium ferulate]
frequency of Tcf1+CD8+ T cells [3]: increased the frequency | differentiation of CD44+CD62L+ central memory CD8+ T cells [4]: significantly increased the differentiation
